Data on three molecules can be found in patent US20150368655A1, “TRANSFORMED EUGLENA AND PROCESS FOR PRODUCING SAME” (OSAKA PREFECTURE UNIVERSITY PUBLIC CORPORATION, priority 2012, published 2015).

SMILES strings stand for the structures. Converted amounts (≈) assume the structure as drawn.

The subject of the assay is Euglena wild strain. As to the kind of experiment: Growth inhibition / drug sensitivity of the Euglena wild strain in KH medium. The class given is cell-based, Euglena gracilis. Here is the method:
Euglena gracilis Klebs Z strain (hereafter, “Euglena wild strain”), which has chloroplasts, was used.
Koren-Hutner medium (KH medium) was used as a heterotrophic medium (Table 1). 150 ml of the KH medium adjusted to a pH of 6.8 was placed in a 500 ml Sakaguchi flask and sterilized by autoclaving at 121° C. for 15 minutes. 1 ml of Euglena that reached the stationary phase by culturing for about 4 to 7 days (10 to 15×10^6 cells/ml) was inoculated into the medium, followed by culture with shaking at 27° C. under continuous light conditions for 24 hours. A plate medium was prepared by adding 1.0%(w/v) of agar powder.
The minimum inhibitory concentration of zeocin for the Euglena wild strain in a medium at a pH of 6.8 was examined. […] The growth inhibition was observed even when the number of cells at the start of culture was relatively large (2.0×10^6 cells/ml in a liquid medium, 2.0×10^6 cells/plate in a plate medium).
The influence of cefotaxime, which is used to remove Agrobacterium, on the growth of Euglena in transformation by the Agrobacterium method was examined. The results reveal that cefotaxime had no influence on the growth of the Euglena wild strain to at least 500 μg/ml (FIG. 8). Thus, a selective medium containing cefotaxime was used.

Take `Cc1c(N)nc([C@H](CC(N)=O)NC[C@H](N)C(N)=O)nc1C(=O)N[C@H](C(=O)N[C@H](C)[C@@H](O)[C@H](C)C(=O)N[C@H](C(=O)NCCC1=N[C@@H](c2nc(C(=O)NCCCCN=C(N)N)cs2)CS1)[C@@H](C)O)[C@@H](O[C@@H]1O[C@@H](CO)[C@@H](O)[C@H](O)[C@@H]1O[C@H]1O[C@H](CO)[C@@H](O)[C@H](OC(N)=O)[C@@H]1O)c1cnc[nH]1` [zeocin]: the “Minimum inhibitory concentration (growth completely inhibited)” value (liquid medium, pH of 6.8) came to 50 µg/mL (≈ 35 µM). Further, where the note is “medium containing 100 μg/ml of zeocin, liquid medium (FIG. 5) or plate medium (FIG. 6)”, the “Growth of the Euglena wild strain” value is listed as “almost completely inhibited”. Moreover, where the note is “plate medium, pH of 6.8”, the “Minimum inhibitory concentration (growth nearly inhibited)” value came out at 25 µg/mL (≈ 17.5 µM).

For the molecule `CO/N=C(\C(=O)N[C@@H]1C(=O)N2C(C(=O)O)=C(COC(C)=O)CS[C@H]12)c1csc(N)n1` [cefotaxime], where the note is “to at least 500 μg/ml (FIG. 8)”, the “Influence on the growth of the Euglena wild strain” value was “no influence”.

For `CN[C@@H]1[C@@H](O)[C@@H](O[C@@H]2[C@@H](O)[C@H](O[C@H]3O[C@H]([C@@H](C)O)[C@@H](O)[C@H](O)[C@H]3N)[C@@H](N)C[C@H]2N)OC[C@]1(C)O` [G418], where the note is “as the concentrations increased (FIGS. 9 and 10)”, the “Growth of the Euglena wild strain” value was “inhibited the growth”.
